Results on five molecules are retold here after ChEMBL document CHEMBL5465560, “Selectivity Literature for EUbOPEN Chemogenomic Library” (2024).

For experiment [1], the target named is T1, Dual specificity mitogen-activated protein kinase kinase 5 (Homo sapiens) (UniProt Q13163).
T1 sequence (whole entry): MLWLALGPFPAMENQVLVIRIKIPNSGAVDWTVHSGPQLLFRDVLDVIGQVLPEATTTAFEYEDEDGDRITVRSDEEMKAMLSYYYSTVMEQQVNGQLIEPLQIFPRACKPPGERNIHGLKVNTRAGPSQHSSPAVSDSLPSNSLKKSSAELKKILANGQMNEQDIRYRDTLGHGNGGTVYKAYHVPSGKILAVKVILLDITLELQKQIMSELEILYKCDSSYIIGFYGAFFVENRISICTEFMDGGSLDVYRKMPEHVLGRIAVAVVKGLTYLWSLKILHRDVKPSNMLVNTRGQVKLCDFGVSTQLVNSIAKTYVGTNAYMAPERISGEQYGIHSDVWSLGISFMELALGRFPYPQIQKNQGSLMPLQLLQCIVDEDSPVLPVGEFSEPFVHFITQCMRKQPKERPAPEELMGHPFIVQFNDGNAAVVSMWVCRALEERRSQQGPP
Briefly: Selectivity interaction (Kinase panel (Carna Biosciences)) EUB0001542aTs MAP2K5. As to conditions: at 1 µM.

The target in experiment [2] is T2, N-lysine methyltransferase KMT5A (Homo sapiens) (UniProt Q9NQR1).
T2 sequence (whole entry): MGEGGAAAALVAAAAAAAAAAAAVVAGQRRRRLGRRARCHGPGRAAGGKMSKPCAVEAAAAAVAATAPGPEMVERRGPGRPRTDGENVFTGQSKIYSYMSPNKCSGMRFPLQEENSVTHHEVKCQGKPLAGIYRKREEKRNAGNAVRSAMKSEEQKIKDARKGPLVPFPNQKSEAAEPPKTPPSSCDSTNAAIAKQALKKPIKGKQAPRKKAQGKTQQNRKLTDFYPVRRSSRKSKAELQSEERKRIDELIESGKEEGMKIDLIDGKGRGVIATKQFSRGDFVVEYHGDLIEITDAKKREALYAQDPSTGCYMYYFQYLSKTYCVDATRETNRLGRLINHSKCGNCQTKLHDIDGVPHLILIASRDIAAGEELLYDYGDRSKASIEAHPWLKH
Put plainly: Selectivity interaction (Methyltransferase screen (radiometric assays, panel of 8 PRMTs, 21 protein lysine methyltransferases, 3 DNA methyltransferases, and one RNA methyltransferase)) EUB0000272b SETD8.

Experiment [3] addresses Protein-tyrosine kinase 2-beta (Homo sapiens) (UniProt Q14289). Briefly: Selectivity interaction (ActivX KiNativ screen (kinase selectivity in THP-1 cell lysates)) EUB0000639a PTK2B. Type of experiment: subcellular. As to conditions: lysate, at 0.04 µM.
Experiment [4] deals with T3, TGF-beta receptor type-1 (Homo sapiens) (UniProt P36897).
T3 sequence (whole entry): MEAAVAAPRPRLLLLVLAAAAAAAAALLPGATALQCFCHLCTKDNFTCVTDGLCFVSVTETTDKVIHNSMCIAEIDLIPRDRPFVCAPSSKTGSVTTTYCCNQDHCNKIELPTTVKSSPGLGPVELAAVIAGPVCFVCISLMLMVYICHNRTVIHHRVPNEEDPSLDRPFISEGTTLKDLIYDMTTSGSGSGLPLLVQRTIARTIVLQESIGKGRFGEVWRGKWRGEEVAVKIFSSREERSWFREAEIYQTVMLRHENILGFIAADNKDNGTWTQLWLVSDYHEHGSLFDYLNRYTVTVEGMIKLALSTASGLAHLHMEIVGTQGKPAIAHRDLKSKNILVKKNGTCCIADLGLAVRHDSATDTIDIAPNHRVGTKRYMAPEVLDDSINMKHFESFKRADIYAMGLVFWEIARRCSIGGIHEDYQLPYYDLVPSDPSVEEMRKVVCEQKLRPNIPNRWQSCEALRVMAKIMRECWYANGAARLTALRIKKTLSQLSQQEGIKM
Briefly: Selectivity interaction (KinomeScan (DiscoverX)) EUB0000229b TGFBR1. As to conditions: at 10 µM.

For experiment [5], the target named is T4, Serine/threonine-protein kinase 3 (Homo sapiens) (UniProt Q13188).
T4 sequence (whole entry): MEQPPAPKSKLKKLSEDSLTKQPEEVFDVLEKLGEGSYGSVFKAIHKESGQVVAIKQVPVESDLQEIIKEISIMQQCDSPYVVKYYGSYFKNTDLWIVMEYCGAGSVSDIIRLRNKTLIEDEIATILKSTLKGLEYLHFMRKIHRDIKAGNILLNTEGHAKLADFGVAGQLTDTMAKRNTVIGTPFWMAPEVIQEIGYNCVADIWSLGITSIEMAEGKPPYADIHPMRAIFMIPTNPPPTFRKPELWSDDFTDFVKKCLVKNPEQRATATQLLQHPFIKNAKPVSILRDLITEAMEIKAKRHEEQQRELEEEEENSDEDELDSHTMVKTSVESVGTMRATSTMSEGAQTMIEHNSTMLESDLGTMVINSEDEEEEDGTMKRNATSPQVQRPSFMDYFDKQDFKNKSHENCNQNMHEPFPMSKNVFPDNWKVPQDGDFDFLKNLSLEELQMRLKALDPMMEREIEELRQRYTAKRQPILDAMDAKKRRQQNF
Put plainly: Selectivity interaction (ActivX KiNativ screen (ex vivo kinase selectivity in human PBMCs)) EUB0001619a STK3. It counts as cell-based. As to conditions: PBMC, at 1 µM.

Chain of Protein-tyrosine kinase 2-beta (Homo sapiens) (Q14289 whole entry, looked up): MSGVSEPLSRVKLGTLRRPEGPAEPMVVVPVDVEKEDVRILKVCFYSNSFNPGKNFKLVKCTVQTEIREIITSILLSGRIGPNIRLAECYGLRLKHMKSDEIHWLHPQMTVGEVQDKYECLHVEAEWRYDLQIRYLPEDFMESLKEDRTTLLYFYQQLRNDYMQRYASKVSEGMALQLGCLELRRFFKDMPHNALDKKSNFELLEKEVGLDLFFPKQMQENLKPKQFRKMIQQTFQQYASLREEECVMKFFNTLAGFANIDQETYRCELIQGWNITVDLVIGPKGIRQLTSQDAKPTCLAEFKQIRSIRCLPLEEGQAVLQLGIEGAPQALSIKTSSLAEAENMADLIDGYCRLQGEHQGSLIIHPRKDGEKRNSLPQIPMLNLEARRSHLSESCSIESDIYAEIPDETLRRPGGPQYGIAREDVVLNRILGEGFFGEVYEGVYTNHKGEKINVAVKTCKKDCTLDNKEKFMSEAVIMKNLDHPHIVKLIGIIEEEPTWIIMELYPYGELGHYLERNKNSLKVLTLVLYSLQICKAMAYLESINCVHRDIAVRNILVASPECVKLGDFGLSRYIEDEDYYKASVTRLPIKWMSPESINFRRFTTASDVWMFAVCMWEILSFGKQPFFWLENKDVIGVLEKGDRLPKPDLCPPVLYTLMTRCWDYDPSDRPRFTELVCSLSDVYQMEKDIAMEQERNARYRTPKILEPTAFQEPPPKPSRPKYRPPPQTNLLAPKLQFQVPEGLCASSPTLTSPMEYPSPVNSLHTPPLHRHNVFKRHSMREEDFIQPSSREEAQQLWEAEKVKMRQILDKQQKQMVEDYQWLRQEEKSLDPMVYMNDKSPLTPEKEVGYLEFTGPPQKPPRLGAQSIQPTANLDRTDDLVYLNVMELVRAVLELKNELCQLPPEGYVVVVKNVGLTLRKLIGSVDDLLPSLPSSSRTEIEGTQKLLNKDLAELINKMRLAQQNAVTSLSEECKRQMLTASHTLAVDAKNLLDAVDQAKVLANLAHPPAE

Turning to `Cn1cc(Nc2nccc(N3CC4CCC(C3)N4C(=O)[C@@H]3CC3(F)F)n2)cn1`, the % of inhibition in experiment [1] is 70%.
With `Cc1cc(C)cc([C@H]2c3cc(C)ccc3NC(=O)CN2C(=O)c2ccc(Br)s2)c1`, the % of activity worked out at 98% in experiment [2] (at 1 µM) and 102% in experiment [2] (at 10 µM).
With `CC[C@@H]1[C@H](F)C(=O)N[C@@H]1COc1nccc2cc(C(N)=O)c(OC)cc12` [ZIMLOVISERTIB], in experiment [3], the % of inhibition came out at 6.6%.
In turn, `COc1cc(N(C)c2ccnc3ccc(C(F)(F)F)cc23)cc(OC)c1OC` registered a % binding in experiment [4] of 89%.
With `N#Cc1cccc(-c2c[nH]c3ncnc(N4CCOCC4)c23)c1`, the % of inhibition in experiment [5] was 69%.
